Source: patent US3971779A, “7-[2-(5-Amino-1,3,4-thiadiazol-2-ylthio)acetamido]cephalosporins” (American Home Products Corporation, priority 1975, dated 1976)
Read-outs that look alike come from different tables or passages of the source.

Experiments:
Experiment in all cases: agar serial dilution MIC
Type in all cases: cell-based
[1] = test system: Shigella boydii 9207; conditions: Example 4
Procedure: (§1) A stock solution of 7-[2-(4,5-dihydro-5-imino-1,3,4-thiadiazol-2-ylthio)acetamido]cephalosporanic acid as the hydrobromic acid addition salt containing 2,500 μg. of the active moiety is prepared in phosphate buffer. Two fold serial dilutions are prepared with phosphate buffer. One milliliter (ml.) quantities of each dilution are incorporated in 9 ml. seen agar in sterile Petri plates. The hardened surface is innoculated with test organisms using a Steers replicating device. The plates are incubated at 35° C. for 18 hours.
(§2) The test organisms are Bacillus subtilis (BA SU) 6633; Staphylococcus aureus (ST AU) 6538P, Smith CHP, and 3-180; Mycobacterium smegmatis (MY SM) 10143; Neisseria catarrhalis (NE CA) 8193; Pseudonomas aeruginosa (PS AE) 10145; Escherichia coli (ES CO) 9637, and 920; Escherichia intermedia (ES IN) 65-1; Salmonella paratyphi (SA PA) 11737; Enterobacter aerogenes (EN AE) 13048; Klebsiella pneumoniae (KL PN) 10031; Bordetella bronchiseptica (BO BR) 4617; Proteus vulgaris (PR VU) 6896; and Herellea species (HE SP) 9955. These organisms are grown for 18 hours in Brain heart infusion at 35° C. Prior to use the cultures are diluted 10 fold with the infusion, except in the case of Mycobacterium. The latter is grown in Emerson's broth for 5 days at 28° C. in shaker flasks and used undiluted.
(§3) Following the procedure of Example 2 but substituting the organisms listed below the same preparation of 7-[2-(4,5-dihydro-5-imino-1,3,4-thiadiazol-2-ylthio)acetamido]cephalosporanic acid (Compound A) as used in Example 3, a third sample of the same compound, prepared as described in Example 1 (Compound B) and 7-[2-(5-acetamido-1,3,4-thiadiazol-2-ylthio)acetamido]cephalosporanic acid (Compound C) are tested to obtain the results shown: […]

[2] = test system: Arizona arizonae 13314
Procedure: as §1, §2, §3

[3] = test system: Enterobacter havniae 11604; conditions: Example 4
Procedure: as §1, §2, §3

[4] = test system: Klebsiella ozaenae 11296
Procedure: as §1, §2, §3

[5] = test system: Citrobacter freundii 8090; conditions: Example 4
Procedure: as §1, §2, §3

[6] = test system: Shigella flexneri 12025; conditions: Example 4
Procedure: as §1, §2, §3

[7] = test system: Citrobacter diversus 27156; conditions: Citrobacter koseri, Example 4
Procedure: as §1, §2, §3

[8] = test system: Salmonella cholera-suis 13312
Procedure: as §1, §2, §3

[9] = test system: Acinetobacter calcoaceticus 9957
Procedure: as §1, §2, §3

[10] = test system: Edwardsiella tarda 15947
Procedure: as §1, §2, §3

[11] = test system: Proteus rettgeri 9918; conditions: Providencia rettgeri, Example 4
Procedure: as §1, §2, §3

[12] = test system: Shigella sonnei 11060; conditions: Example 4
Procedure: as §1, §2, §3

[13] = test system: Salmonella enteritidis 13076; conditions: Salmonella enterica, Example 4
Procedure: as §1, §2, §3

[14] = test system: Enterobacter cloacae 13047; conditions: Example 4
Procedure: as §1, §2, §3

[15] = test system: Klebsiella pneumoniae 13883
Procedure: as §1, §2, §3

[16] = test system: Providencia stuartii 25825; conditions: Example 4
Procedure: as §1, §2, §3

[17] = test system: Enterobacter agglomerans 27155
Procedure: as §1, §2, §3

[18] = test system: Salmonella typhi 19430; conditions: Salmonella enterica
Procedure: as §1, §2, §3

[19] = test system: Serratia liquefaciens 27592; conditions: Example 4
Procedure: as §1, §2, §3

[20] = test system: Serratia rubidae 27593; conditions: Example 4
Procedure: as §1, §2, §3

[21] = test system: Serratia marcescens 13880; conditions: Example 4
Procedure: as §1, §2, §3

Measured: MIC

CC(=O)OCC1=C(C(=O)O)N2C(=O)C(NC(=O)CSc3n[nH]c(=N)s3)C2SC1 (centres unmarked) [7-[2-(4,5-Dihydro-5-Imino-1,3,4-Thiadiazol-2-ylthio)Acetamido]Cephalosporanic Acid]
1.95 µg/mL: [2]; Salmonella enterica, 13314, Example 4 | [4] | [7] | [8] | [13] | [18]
62.5 µg/mL: [1] | [12]
250 µg/mL: [11] | [16]
31.3 µg/mL: [6]; listed as A | [10]; Edwardsiella tarda, 15947, Example 4
15.6 µg/mL: [10]; Edwardsiella tarda, 15947, Example 4, read-out: MIC | [15]; Klebsiella pneumoniae, 13883, Example 4, read-out: MIC | [17]; Pantoea agglomerans, 27155, Example 4, read-out: MIC
> 250 µg/mL: [3] | [5] | [14] | [19] | [20] | [21]
3.9 µg/mL: [2]; Salmonella enterica, 13314, Example 4, read-out: MIC
7.81 µg/mL: [6]; listed as B | [9] | [15]; Klebsiella pneumoniae, 13883, Example 4 | [17]; Pantoea agglomerans, 27155, Example 4
